These results are taken from US20100311674A1, “PHARMACEUTICAL COMPOSITIONS WITH A MECHANISM OF MULTI-TARGET RECEPTOR RETROACTION FOR TREATING DEPRESSION” (Yu-Fen Chi, priority 2007, published 2010).

SMILES strings stand for the structures.

What all share (assay type): in vivo
The test system of assay [1] is ICR mice. In words: Mouse swimming by compulsion experiment (Experiment 10). How it is done:
10.1 Experiment pharmaceuticals: The pharmaceutical of Embodiment 5 is provided by Beijing Wonner Biotech. […] Above-mentioned pharmaceuticals are prepared with physiological saline for feeding into the stomach. 10.2 Experimental animals: ICR mice, male, 20.0±1 g of body weight, secondary, are provided by the Experimental Animal Science Department of Capital Medical University, Beijing. The quality certificate number of mice is SCXK (JING) 2006-2008. 10.4 Experimental method: The mouse group and the administration of drugs are like the mouse tail-hanging experiment. The experiment is proceeded in tested mouse in each group after 1 hour of the administration of drug. The mouse is trained to swim for 15 minutes before the experiment and on the eighth day. After 24 hours, the experiment is performed. The mouse is placed in the glass tank having 10 cm of the water depth, 14 cm of the diameter and at 25° C. of the water temperature. The accumulative time of non-movement of the mouse in the water for the last 5 minutes is recorded. 10.5 Statistic calculation: The experimental data are represented as X+SD, and the experimental result is calculated as one-way ANOVA by SPSS 11.5 statistic software.

Assay [2] relates to ICR mice. As to the kind of experiment: Mouse tail-hanging experiment (Experiment 5). How it is done: 5.1 Experimental animals: ICR mice, male, 22.0±2 g of body weight, secondary, are provided by the Experimental Animal Science Department of Capital Medical University, Beijing. 5.2 Experiment pharmaceuticals: The pharmaceutical of Embodiment 3 is provided by Beijing Wonner Biotech. […] High dose of Embodiment 3 (80 mg/kg/d); 2. middle dose of Embodiment 3 (40 mg/kg/d); and 3. low dose of Embodiment 3 (20 mg/kg/d). 5.5.1 Group division and administration of drug: The mice are grouped randomly, and 10 mice are in each group. 1. High dose of Embodiment 3 (80 mg/kg, P.O., administered for 7 days); 2. middle dose of Embodiment 3 (40 mg/kg, P.O., administered for 7 days); 3. low dose of Embodiment 3 (20 mg/kg, P.O., administered for 7 days); 4. […] After 1 hour of the last administration of drug, the mouse tail-hanging experiment is proceeded. 5.5.2 Experimental method: The mouse's tail (1 cm to the tail end) is taped on the wood strip higher than the platform for 5 cm and hung up for 6 minutes. The time of non-movement of the mouse for the last 5 minutes is recorded. 5.5.3 Statistic calculation: The experimental data are represented as X+SD, and the experimental result is calculated as ANOVA by SPSS 11.5 statistic software.

In assay [3] the test system is NE and 5-HT contents in the rat cerebral cortex. As to the kind of experiment: HPLC-electrochemical test of NE and 5-HT contents in the rat cerebral cortex, unpredictable long-term stimulus model (Experiment 8). To be noted: 2 mg/kg/d into the stomach, 24 days.
Experimental: Unpredictable long-term stimulus model: Health Wistar male rats, secondary, 240˜270 g of body weight, are purchased from Beijing Vital River Experimental Animal Technology Ltd. Co. (The quality certificate number: SOCK (JING) 2002-2003).
The above pharmaceuticals are prepared with 0.5% of sodium carboxymethylcellulose (CMC-Na) for feeding into the stomach. Benzylpenicillin sodium for injection is the product of North China Pharmaceutical Huasheng Co. Ltd. (Lot: S0511204), and norepinephrine (NE) and 5-hydrotryptamine (5-HT) standards are the products of Sigma Co. Other reagents are all marketed.
8.4.1 Group division and administration of drug: The rats are grouped randomly into 6 groups. […] The test drugs and the positive control drug are prepared with 0.5% of CMC-Na for feeding into the stomach once every day.
Unpredictable long-term stimulus model: The rats in the control group eat and drink normally, and there is no stimulus performed. […]
8.5.6 HPLC-electrochemical test: The amounts of norepinephrine and 5-hydrotryptamine in the rat cerebral cortex are measured.
8.6 Statistic calculation: The experimental data are represented as 7±SD, and the experimental result is calculated as ANOVA by SPSS 11.5 statistic software.
For assay [4], the system named is ICR mice. As to the kind of experiment: Mouse tail-hanging experiment (Experiment 1). On the procedure: 1.1 Experimental animals: ICR mice, male, 22.0±2 g of body weight, secondary, are provided by the Experimental Animal Science Department of Capital Medical University, Beijing. 1.2 Experiment pharmaceuticals: The pharmaceutical of Embodiment 1 is provided by Beijing Wonner Biotech. […] High dose of Embodiment 1 (80 mg/kg/d); 2. middle dose of Embodiment 1 (40 mg/kg/d); and 3. low dose of Embodiment 1 (20 mg/kg/d). 1.5.1 Group division and administration of drug: The mice are grouped randomly, and 10 mice are in each group. 1. High dose of Embodiment 1 (80 mg/kg, per oral (P.O.), administered for 7 days); 2. middle dose of Embodiment 1 (40 mg/kg, P.O., administered for 7 days); 3. low dose of Embodiment 1 (20 mg/kg, P.O., administered for 7 days); 4. […] After 1 hour of the last administration of drug, the mouse tail-hanging experiment is proceeded. 1.5.2 Experimental method: The mouse's tail (1 cm to the tail end) is taped on the wood strip higher than the platform for 5 cm and hung up for 6 minutes. The time of non-movement of the mouse for the last 5 minutes is recorded. 1.5.3 Statistic calculation: The experimental data are represented as X±SD, and the experimental result is calculated as analysis of variance (ANOVA) by SPSS 11.5 statistic software.

Assay [5] concerns ICR mice. In words: Mouse tail-hanging experiment (Experiment 3). On the procedure:
3.1 Experimental animals: ICR mice, male, 22.0±2 g of body weight, secondary, are provided by the Experimental Animal Science Department of Capital Medical University, Beijing. 3.2 Experiment pharmaceuticals: The pharmaceutical of Embodiment 2 is provided by Beijing Wormer Biotech. […] High dose of Embodiment 2 (80 mg/kg/d); 2. middle dose of Embodiment 2 (40 mg/kg/d); and 3. low dose of Embodiment 2 (20 mg/kg/d). 3.5.1 Group division and administration of drug: The mice are grouped randomly, and 10 mice are in each group. 1. High dose of Embodiment 2 (80 mg/kg, P.O., administered for 7 days); 2. middle dose of Embodiment 2 (40 mg/kg, P.O., administered for 7 days); 3. low dose of Embodiment 2 (20 mg/kg, P.O., administered for 7 days); 4. […] After 1 hour of the last administration of drug, the mouse tail-hanging experiment is proceeded. 3.5.2 Experimental method: The mouse's tail (1 cm to the tail end) is taped on the wood strip higher than the platform for 5 cm and hung up for 6 minutes. The time of non-movement of the mouse for the last 5 minutes is recorded. 3.5.3 Statistic calculation: The experimental data are represented as X±SD, and the experimental result is calculated as ANOVA by SPSS 11.5 statistic software.

The mark [6] stands for this setting: 3 mg/kg P.O. 7 days, 1 h after last dose, last 5 of 6 min.

Regarding `Fc1ccc([C@@H]2CCNC[C@H]2COc2ccc3c(c2)OCO3)cc1` [Paroxetine], the Time of non-movement in the assay on ICR mice [1] (3 mg/kg/d into the stomach, 1 h after dose, water 25° C., last 5 minutes) was found to be 57.80 ± 38.07 s; in the assay on ICR mice [2] (setting [6]), 75.33 ± 22.91 s; with ICR mice [4] (setting [6]) it was 75.33 ± 22.91 s; with ICR mice [5] (setting [6]), 75.33 ± 22.91 s. Also, the “Effect on accumulative time of non-movement, swimming by compulsion (in words)” value in the assay with ICR mice [1] (high, middle and low doses of Embodiment 5, Paroxetine) is “obviously decrease the accumulative time of non-movement”. In addition, the “Effect on time of non-movement after the mouse's tail is hung up (in words)” value in the assay on ICR mice [2] (high and middle doses of Embodiment 3, Paroxetine, significantly different from control) is “decrease the time of non-movement”; in the assay with ICR mice [4] (high and middle doses of Embodiment 1, Paroxetine, significantly different from control), “decrease the time of non-movement”; with ICR mice [5] (middle dose of Embodiment 2, Paroxetine, significantly different from control) it was “decrease the time of non-movement”. Besides, the NE in assay [3] is 220.5419 ± 38.32 nmol/L brain tissue extract.
